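Assay format: 96-well plates, 48-hour exposure. Here, GI50 denotes the concentration required for 50% inhibition of growth. TGI is the concentration that stops growth completely.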 Some results are limits rather than exact numbers.

This note sets out measurements from PubChem BioAssay (NCI).

Test systems include A498 renal; SK-OV-3 ovarian; MCF7 breast; SNB-19 CNS; UACC-62 melanoma; RPMI-8226 leukemia; TK-10 renal; MOLT-4 leukemia; IGROV1 ovarian; M14 melanoma.
What all share (experiment): NCI anticancer screen, dose series, 48 h

Take `Cc1nc2ccc(Nc3nc(NCCN4CCOCC4)nc(Nc4ccc(F)cc4)n3)cc2n1Cc1ccccc1`: the GI50 was 1350 nM in the experiment with A498 renal; 4.48 µM with SK-OV-3 ovarian; 2460 nM in the experiment with MCF7 breast; 3.07 µM in the experiment with SNB-19 CNS; 2270 nM in the experiment on UACC-62 melanoma; 1740 nM with RPMI-8226 leukemia. The GI50 in the experiment with TK-10 renal is 7.26 µM; in the experiment with MOLT-4 leukemia, 2700 nM; with IGROV1 ovarian, 5.59 µM; in the experiment with M14 melanoma, 1860 nM. For the same molecule, the TGI in the experiment with A498 renal is 5.13 µM; with SK-OV-3 ovarian it was 17.3 µM; in the experiment with MCF7 breast it was 11.7 µM; in the experiment with SNB-19 CNS, 15.2 µM; with UACC-62 melanoma, 6.18 µM; in the experiment on RPMI-8226 leukemia, 4.62 µM. In addition, the TGI in the experiment on TK-10 renal amounted to 32.2 µM; with MOLT-4 leukemia, 10.9 µM; in the experiment with IGROV1 ovarian, 46 µM; in the experiment on M14 melanoma, 3.66 µM.

Regarding `O=c1[nH]c(=O)n(C2OC(CO)C(O)C2O)c2c1CCCC2` (centres undefined), the TGI with A498 renal, with SK-OV-3 ovarian, in the experiment with MCF7 breast, with SNB-19 CNS, in the experiment on UACC-62 melanoma and with RPMI-8226 leukemia was greater than 100 µM each time. For the same molecule, the TGI with TK-10 renal, in the experiment with MOLT-4 leukemia, with IGROV1 ovarian and with M14 melanoma was greater than 100 µM throughout.

Consider `OCC1OC(n2ccc3c(NO)ncnc32)C(O)C1O` (centres undefined), for which the GI50 in the experiment with A498 renal was 152 nM; in the experiment with SK-OV-3 ovarian, 0.12 µM; with MCF7 breast, 130 nM; in the experiment with SNB-19 CNS, 0.263 µM; in the experiment on UACC-62 melanoma it was 128 nM; in the experiment on RPMI-8226 leukemia it was 138 nM. For the same molecule, the GI50 is 0.152 µM in the experiment on TK-10 renal, 153 nM in the experiment on MOLT-4 leukemia, 0.088 µM in the experiment on IGROV1 ovarian and 77 nM in the experiment with M14 melanoma. The TGI in the experiment with A498 renal was determined as 0.794 µM; with SK-OV-3 ovarian it was 5.38 µM; with MCF7 breast, 1.68 µM; in the experiment with UACC-62 melanoma, 0.326 µM; with RPMI-8226 leukemia, 0.504 µM; in the experiment with TK-10 renal, 1.16 µM. Moreover, the values for the TGI in the experiment with MOLT-4 leukemia, with IGROV1 ovarian and in the experiment with M14 melanoma were 0.477 µM, 1.17 µM and 0.578 µM, respectively.

With `C=C1C(=O)OC2CC1C(O)C/C(C)=C/CC/C(C)=C/C(O)CC2C` (centres undefined), the TGI with A498 renal was found to be 9.16 µM; in the experiment with SK-OV-3 ovarian it was 26.5 µM; in the experiment on MCF7 breast, 7.44 µM; with SNB-19 CNS it was 18.9 µM; in the experiment on UACC-62 melanoma it was 6.1 µM; with RPMI-8226 leukemia, 6.23 µM. The TGI with TK-10 renal turned out to be 6.91 µM; in the experiment with MOLT-4 leukemia it was 3.11 µM; in the experiment on IGROV1 ovarian, 9.3 µM; with M14 melanoma, 9.63 µM.

As to `N#Cc1cnc2cc(OC[C@@H](O)CO)c(NC(=O)CC3CSSC3)cc2c1Nc1ccc(OCc2cccc(F)c2)c(Cl)c1`, the GI50 in the experiment with A498 renal is 848 nM; in the experiment with SK-OV-3 ovarian, 0.567 µM; in the experiment on MCF7 breast it was 85.7 nM; in the experiment with SNB-19 CNS, 0.381 µM; in the experiment on UACC-62 melanoma, 380 nM; in the experiment with RPMI-8226 leukemia, 557 nM. In addition, the GI50 was 0.772 µM in the experiment with TK-10 renal, 73.6 nM in the experiment with MOLT-4 leukemia, 0.288 µM with IGROV1 ovarian and 82.8 nM with M14 melanoma. In addition, the TGI in the experiment with A498 renal came out at 1.92 µM; in the experiment on SK-OV-3 ovarian, 1.27 µM; with MCF7 breast, 0.182 µM; with SNB-19 CNS, 1.18 µM; with UACC-62 melanoma it was 1.08 µM; in the experiment with RPMI-8226 leukemia it was 1.74 µM. The TGI in the experiment on TK-10 renal is 1.51 µM; in the experiment with MOLT-4 leukemia, 0.174 µM; with IGROV1 ovarian it was 1.11 µM; in the experiment on M14 melanoma, 0.175 µM.

Regarding `CN1CCCN(C)C1c1cc([N+](=O)[O-])ccc1O`, the TGI in the experiment on A498 renal is greater than 100 µM; with SK-OV-3 ovarian, greater than 100 µM; in the experiment with MCF7 breast, 63.3 µM; in the experiment on SNB-19 CNS, greater than 100 µM; in the experiment with UACC-62 melanoma it was 44.3 µM; with RPMI-8226 leukemia it was greater than 100 µM. In addition, the TGI with TK-10 renal was greater than 100 µM; in the experiment with MOLT-4 leukemia, 59.8 µM; in the experiment with IGROV1 ovarian, greater than 100 µM; with M14 melanoma, 58.5 µM.

Take `NNc1cccc(/C=C/c2ccccc2)cc1=O`: the GI50 with A498 renal is 13000 nM; with SK-OV-3 ovarian, 19.8 µM; in the experiment with MCF7 breast, 8320 nM; in the experiment on SNB-19 CNS, 14.9 µM; in the experiment with UACC-62 melanoma it was 5330 nM; in the experiment on RPMI-8226 leukemia it was 3850 nM. The GI50 in the experiment with TK-10 renal is 50.6 µM; in the experiment with MOLT-4 leukemia, 3940 nM; with IGROV1 ovarian, 4.26 µM; with M14 melanoma, 12400 nM. The TGI in the experiment on A498 renal was 55.7 µM; with SK-OV-3 ovarian, greater than 100 µM; with MCF7 breast, greater than 100 µM; in the experiment on SNB-19 CNS, greater than 100 µM; in the experiment with UACC-62 melanoma, 93.1 µM; in the experiment on RPMI-8226 leukemia it was greater than 100 µM. In addition, the TGI is greater than 100 µM in the experiment on TK-10 renal, greater than 100 µM in the experiment on MOLT-4 leukemia, 46.1 µM in the experiment on IGROV1 ovarian and 44.7 µM in the experiment on M14 melanoma.

Take `CCOC(=O)C(=Cc1ccccc1[N+](=O)[O-])C(=O)OCC`: the GI50 is 5600 nM in the experiment with A498 renal; 3.51 µM in the experiment on SK-OV-3 ovarian; 2520 nM with MCF7 breast; 4.27 µM in the experiment with SNB-19 CNS; 1590 nM in the experiment on UACC-62 melanoma; 3690 nM with RPMI-8226 leukemia. Further, the GI50 was 5.39 µM with TK-10 renal, 3550 nM with MOLT-4 leukemia, 3.77 µM in the experiment on IGROV1 ovarian and 2950 nM with M14 melanoma. The TGI in the experiment with A498 renal came out at 17.3 µM; in the experiment with SK-OV-3 ovarian, 12.7 µM; in the experiment on MCF7 breast, 14.2 µM; with SNB-19 CNS, 16.4 µM; in the experiment on UACC-62 melanoma, 3.39 µM; in the experiment on RPMI-8226 leukemia it was 18.3 µM. Moreover, the TGI turned out to be 15.7 µM with TK-10 renal, 34.5 µM in the experiment with MOLT-4 leukemia, 15.4 µM in the experiment on IGROV1 ovarian and 10.1 µM in the experiment on M14 melanoma.

With `Clc1ccc2[nH]cc(-c3nc(-c4c[nH]c5ncccc45)cs3)c2c1`, the GI50 in the experiment with A498 renal was 2080 nM; in the experiment on SK-OV-3 ovarian it was 6.16 µM; in the experiment on MCF7 breast, 2460 nM; in the experiment with SNB-19 CNS it was 5.97 µM; with UACC-62 melanoma, 4000 nM; in the experiment with RPMI-8226 leukemia, 3340 nM. The GI50 in the experiment with TK-10 renal is 4.71 µM; in the experiment on MOLT-4 leukemia it was 2730 nM; in the experiment with IGROV1 ovarian it was 3.04 µM; with M14 melanoma, 3200 nM. Also, the TGI in the experiment with A498 renal came to 10.4 µM; with SK-OV-3 ovarian it was 39 µM; in the experiment with MCF7 breast, 16.5 µM; in the experiment on SNB-19 CNS, 43.9 µM; with UACC-62 melanoma, 16.5 µM; in the experiment on RPMI-8226 leukemia, 77.1 µM. Also, the TGI in the experiment with TK-10 renal worked out at 38.1 µM; with MOLT-4 leukemia it was 25.6 µM; with IGROV1 ovarian it was 28.6 µM; in the experiment on M14 melanoma it was 11.1 µM.
